# Experimental data taken from the supplement of paper PMC11208160.
# Assay: recombinant barcode read abundance after kanamycin selection (control-corrected) (log10(CPM+1)); higher = more efficient recombination; sequences stand for … in AGTGCAGAGAAAATCGGCCAGTTTTCTCTGCCTGCAGTCCGCATGCCGT…AGATTTATGCAGCGGACTGCCTTTCTCCCAAAGTGATAAACCGGACAGTATCATGGACCGGTTTTCCCGGTAATCCGTATTTGCAAGGTTGGTTTCACT; site = the 11-nt target
# Procedure: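 Pooled E. coli target-specificity screen for the IS621 bridge recombinase. Each library plasmid pairs an 11-nt target (CT core) with a bridge RNA whose target-binding loop (9-nt LTG + 4-nt RTG) is reprogrammed; the rest of the 177-nt WT IS621 bridge RNA scaffold is fixed. The plasmid is co-electroporated with a WT donor plasmid; recombinase is induced with 0.1 mM IPTG and recombinants are selected on kanamycin. Recombinant barcodes are sequenced, converted to CPM, averaged over two biological replicates and corrected by the unselected control CPM. Molecule = full bridge RNA written as DNA: LTG = specificity nt 1-9, RTG = reverse complement of specificity nt 8-11, in the WT scaffold.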
# 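Note: IS621 recombinase and bridge RNA in Escherichia coli cells.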
row,Sequence,recombinant barcode read abundance (log10)
1,ACCCGTCCTTGGGTTCTAACCTGTTGCAG (site GGCCGTCCTCT),0.051
2,ACCCTAGCTTGGGTTCTAACCTGTTGCCA (site ACCCTAGCTTG),1.52
3,ACCCTAGCTTGGGTTCTAACCTGTTGCCA (site ATCGTAGCTTG),0.0661
4,ACCCTAGCTTGGGTTCTAACCTGTTGCTC (site AACCTAGCTTA),0.191
5,ACCCTAGCTTGGGTTCTAACCTGTTGCTC (site ACCCTAGCTGA),1.95
6,ACCCTATCTTGGGTTCTAACCTGTTGCTT (site ACCCTATCTAA),0.944
7,ACCCTATCTTGGGTTCTAACCTGTTGCTT (site ACTCTGTCTAA),0.114
8,ACCGACCCTTGGGTTCTAACCTGTTGCAT (site ACCGACCCTAT),1.67
9,ACCGACCCTTGGGTTCTAACCTGTTGCAT (site TAGTTTGCTCG),0.401
10,ACCGCGTCTTGGGTTCTAACCTGTTGCAT (site ACCGCGTCTAT),0.521
11,ACCGCGTCTTGGGTTCTAACCTGTTGCAT (site TTGATAGCTTA),0.0509
12,ACCGCTCCTTGGGTTCTAACCTGTTGCCT (site AACGCTCCTAG),0.0208
13,ACCGCTCCTTGGGTTCTAACCTGTTGCCT (site ACCGCTCCTAG),0.297
14,ACCGCTCCTTGGGTTCTAACCTGTTGCCT (site AGCGCTCCTAG),0.0225
15,ACCGCTCCTTGGGTTCTAACCTGTTGCCT (site ATCGCTCCTAG),0.0271
16,ACCTACCCTTGGGTTCTAACCTGTTGCCT (site ACATACACTAG),0.136
17,ACCTACCCTTGGGTTCTAACCTGTTGCCT (site ACCTACCCTAG),1.14
18,ACCTACGCTTGGGTTCTAACCTGTTGCCT (site ACCTACGCTAG),1.01
19,ACCTACGCTTGGGTTCTAACCTGTTGCCT (site ACCTACTCTAG),0.23
20,ACCTACTCTTGGGTTCTAACCTGTTGCTT (site ACCTACTCTAA),1.33
21,ACCTACTCTTGGGTTCTAACCTGTTGCTT (site AGCTACCCTAA),0.315

row,Sequence,recombinant barcode read abundance (log10)
1,ACCTCGGCTTGGGTTCTAACCTGTTGCTG (site ACCTCGGCTCA),0.399
2,ACCTCGGCTTGGGTTCTAACCTGTTGCTG (site TGGCAATCTAG),0.0759
3,ACCTTAGCTTGGGTTCTAACCTGTTGCTT (site ACCTTAGCTAA),0.297
4,ACCTTAGCTTGGGTTCTAACCTGTTGCTT (site TAGGCGACTTG),0.0735
5,ACCTTGTCTTGGGTTCTAACCTGTTGCTA (site ACCTTGTCTTA),0.777
6,ACCTTGTCTTGGGTTCTAACCTGTTGCTA (site GCCATGTCTTA),0.0578
7,ACGAAGGCTTGGGTTCTAACCTGTTGCCT (site ACGAAGGCTAG),0.696
8,ACGAAGGCTTGGGTTCTAACCTGTTGCCT (site ACGAAGGCTCG),0.0407
9,ACGAGCGCTTGGGTTCTAACCTGTTGCCT (site ACGAACGCTAG),0.132
10,ACGAGCGCTTGGGTTCTAACCTGTTGCCT (site ACGACCGCTAG),0.0589
11,ACGAGCGCTTGGGTTCTAACCTGTTGCCT (site ACGAGCGCTAG),1.54
12,ACGAGCGCTTGGGTTCTAACCTGTTGCCT (site ACGATCGCTAG),0.0598
13,ACGAGCTCTTGGGTTCTAACCTGTTGCTG (site ACGAGCTCTCA),1.84
14,ACGAGCTCTTGGGTTCTAACCTGTTGCTG (site CCGCGCTCTCA),0.0264
15,ACGAGTACTTGGGTTCTAACCTGTTGCTG (site ACGAGTACTCA),1.02
16,ACGAGTACTTGGGTTCTAACCTGTTGCTG (site ACGAGTACTCC),0.662
17,ACGAGTCCTTGGGTTCTAACCTGTTGCGT (site ACGAGTCCTAC),2.6
18,ACGAGTCCTTGGGTTCTAACCTGTTGCGT (site ACGAGTCCTAG),0.202
19,ACGCAATCTTGGGTTCTAACCTGTTGCCT (site ACGCAATCTAG),0.0303
20,ACGCAATCTTGGGTTCTAACCTGTTGCCT (site ACGCACTCTAG),0.0895
21,ACGCAATCTTGGGTTCTAACCTGTTGCCT (site ACGCAGTCTAG),0.131

row,Sequence,recombinant barcode read abundance (log10)
1,ACGCAATCTTGGGTTCTAACCTGTTGCCT (site ACGCATTCTAG),0.157
2,ACGCACTCTTGGGTTCTAACCTGTTGCCG (site ACGCACTCTCG),0.646
3,ACGCACTCTTGGGTTCTAACCTGTTGCCG (site GATGGTACTAT),0.0148
4,ACGCATTCTTGGGTTCTAACCTGTTGCCT (site ACGCAATCTAG),0.0565
5,ACGCATTCTTGGGTTCTAACCTGTTGCCT (site ACGCACTCTAG),0.123
6,ACGCATTCTTGGGTTCTAACCTGTTGCCT (site ACGCAGTCTAG),0.0603
7,ACGCATTCTTGGGTTCTAACCTGTTGCCT (site ACGCATTCTAG),0.355
8,ACGCGCCCTTGGGTTCTAACCTGTTGCAC (site ACGCGCCCTGT),0.152
9,ACGCGCCCTTGGGTTCTAACCTGTTGCAC (site CCGCGCCCTAT),0.0707
10,ACGCTATCTTGGGTTCTAACCTGTTGCTT (site ACGCTATCTAA),0.13
11,ACGCTATCTTGGGTTCTAACCTGTTGCTT (site CTAGCGACTCG),0.159
12,ACGGCATCTTGGGTTCTAACCTGTTGCCT (site ACGGCATCTAG),0.0883
13,ACGGCATCTTGGGTTCTAACCTGTTGCCT (site ACGGCCTCTAA),0.225
14,ACGGGCTCTTGGGTTCTAACCTGTTGCTT (site ACGGGCTCTAA),2.69
15,ACGGGCTCTTGGGTTCTAACCTGTTGCTT (site AGGGGCTCTCA),0.032
16,ACGGTCACTTGGGTTCTAACCTGTTGCCG (site ACGGTCACTCG),0.435
17,ACGGTCACTTGGGTTCTAACCTGTTGCCG (site AGGGGCACTCG),0.533
18,ACGTCAACTTGGGTTCTAACCTGTTGCCT (site ACATCAACTAG),0.192
19,ACGTCAACTTGGGTTCTAACCTGTTGCCT (site ACCTCAACTAG),0.454
20,ACGTCAACTTGGGTTCTAACCTGTTGCCT (site ACGTCAACTAG),0.0389
21,ACGTCAACTTGGGTTCTAACCTGTTGCCT (site ACTTCAACTAG),0.0307

row,Sequence,recombinant barcode read abundance (log10)
1,ACGTTTCCTTGGGTTCTAACCTGTTGCAT (site AAGTTTCCTAC),0.0104
2,ACGTTTCCTTGGGTTCTAACCTGTTGCAT (site ACGTTTCCTAT),0.0487
3,ACTAAGTCTTGGGTTCTAACCTGTTGCCT (site AATAAGTCTAG),0.106
4,ACTAAGTCTTGGGTTCTAACCTGTTGCCT (site ACTAAGTCTAG),0.53
5,ACTAAGTCTTGGGTTCTAACCTGTTGCCT (site AGTAAGTCTAG),0.0249
6,ACTAAGTCTTGGGTTCTAACCTGTTGCCT (site ATTAAGTCTAG),0.0792
7,ACTACTACTTGGGTTCTAACCTGTTGCCA (site ACTACTACTTG),0.0676
8,ACTACTACTTGGGTTCTAACCTGTTGCCA (site GGTACTACTTG),0.433
9,ACTAGAACTTGGGTTCTAACCTGTTGCAA (site ACTAGAACTTT),0.402
10,ACTAGAACTTGGGTTCTAACCTGTTGCAA (site ACTAGGACTCT),0.116
11,ACTAGCTCTTGGGTTCTAACCTGTTGCTA (site ACTAGCTCTTA),0.145
12,ACTAGCTCTTGGGTTCTAACCTGTTGCTA (site ACTAGGTCTTA),0.0229
13,ACTAGGACTTGGGTTCTAACCTGTTGCAG (site ACTAGAACTTT),0.0381
14,ACTAGGACTTGGGTTCTAACCTGTTGCAG (site ACTAGGACTCT),2.49
15,ACTAGGACTTGGGTTCTAACCTGTTGCGC (site ACTAGGACTAC),0.571
16,ACTAGGACTTGGGTTCTAACCTGTTGCGC (site ACTAGGACTCC),0.478
17,ACTAGGACTTGGGTTCTAACCTGTTGCGC (site ACTAGGACTGC),2.3
18,ACTAGGACTTGGGTTCTAACCTGTTGCGC (site ACTAGGACTTC),0.0123
19,ACTCACCCTTGGGTTCTAACCTGTTGCGG (site ACTCACCCTCC),2.62
